The data set can be described thus: Human HepG2 cell viability assay in 384 well format. Details: dose 125 nL, time 70.5 hour; cytotoxicity at 70.5 h: concentration not given beside the values. The class given is toxicity, cell-based. Particulars: HepG2 cells, read-out: Inhibition.
With `CC(C)CCNC(=O)c1ccc2c(=O)n(-c3ccccc3)cnc2c1`, the cytotoxicity at 70.5 h was -25.3%.
The figure for `CCCOc1c(Cl)cc(C(=O)N2CCOC23CCN(C)CC3)cc1Cl` is 7.29%; for `O=C(CCC(=O)N1CCC(c2noc3cc(F)ccc23)CC1)NC1CC1` it is 13.1%; for `O=C1CCCC2=C1C(c1ccccc1F)Nc1nonc1N2` (centres undefined) it is -3.65%.
Under `CCCc1nc2c(c(C)c(C)n2Cc2ccncc2)c(N)c1CC` stands 53.6%; under `CC(C)n1nnc2c(sc3nc(N4CCOCC4)c4c(c32)CCC4)c1=O`, -13.1%; under `Cc1nc(Cc2ccccc2)nc2sc(C(=O)O)c(C)c12`, -5.63%.
Under `COC(=O)[C@H](C)NC(=O)Cn1ccc2ccc(F)cc21` stands -1.25%.
For the compound `COc1ccc(S(=O)(=O)NCCCc2nnc3nc(C)cc(C)n23)cc1`, the cytotoxicity at 70.5 h was -7.77%.
Regarding `CC(C)CCNC(=O)CNC(=O)N1CCc2c([nH]c3ccc(Cl)cc23)C1`, the cytotoxicity at 70.5 h is -19.7%.
The figure for `CSCC[C@@H](CO)NC(=O)c1sc(-c2ccc(Cl)cc2)nc1C` is -11.9%; for `CC(C)Cc1nc(OCC(=O)O)c(C#N)c2c1CCCC2` it is -7.68%.
The figure for `O=C(Cc1csc(-c2cccc(Cl)c2)n1)NCc1cccc(C(=O)O)c1` is -14.3%.
Under `Cc1nn2c(NC(=O)CSc3ncccn3)csc2nc1=O` stands -12.6%; under `O=C(NC1CCCC1)c1nc(COc2ccc3c(c2)OCO3)no1`, -9.86%.
As for `CN1C(=O)C2(CC(=O)Nc3[nH]ncc32)c2cc(Cl)ccc21` (centres undefined), the cytotoxicity at 70.5 h was -29.3%.
The figure for `O=C(C1CC1)N(Cc1ccc2cc[nH]c2c1)C1CC1` is -22.5%; for `CNc1oc(COc2ccc3c(c2)OCO3)nc1C#N` it is -19.3%; for `Cc1nnc(SCC(=O)c2cc3c(cc2Cl)NC(=O)C3)o1` it is -31.5%.
Take `COCCNc1nc(N2CCOCC2)nc2nccnc12`: the cytotoxicity at 70.5 h is -4.36%.
Turning to `COCCNC(=O)Cn1ccc2cccc(OC)c21`, the cytotoxicity at 70.5 h was 8.67%.
Under `Cc1nnc(SC2CCc3ccccc3NC2=O)o1` (centres undefined) stands -16.3%; under `COc1cccc(N2Cc3nc(=O)n(Cc4cccc(F)c4)n3C2=O)c1`, -20.7%; under `CNC(=O)c1nc(COc2c(C)occc2=O)no1`, -14.3%.
Under `CC(C)c1nc2oc(C(=O)N3CCOCC3)c(N)c2c2c1CCCC2` stands -16.6%; under `Cc1nnc(SCC(=O)c2cc3c(cc2Cl)NC(=O)C3)s1`, -30.2%.
The figure for `CC(C)CNC(=O)Cn1ccc2ccccc21` is -0.252%; for `CN1CCN(S(=O)(=O)c2cccc(S(=O)(=O)C3CCS(=O)(=O)C3)c2)CC1` (centres undefined) it is -11.1%.
Turning to `COC(=O)[C@H](CCSC)NC(=O)Cn1ccc2c(Cl)cccc21`, the cytotoxicity at 70.5 h is -17.2%.
The figure for `O=C(Cc1noc(C(=O)NCC2CC2)n1)Nc1cccc(C(F)(F)F)c1` is -7.55%; for `Cc1cccnc1NC(=O)C1(n2cnnn2)CCCCC1` it is -30.1%; for `CSc1nsc(SCC(=O)c2cc3c(cc2Cl)NC(=O)C3)n1` it is -29.3%.
The figure for `COc1ccc2c(ccn2CCC(=O)Nc2ccc(C(N)=O)cc2)c1` is -7.39%; for `NC(=O)c1nc(CC(=O)Nc2cccc(C(F)(F)F)c2)no1` it is 0.00692%; for `Cc1sc(-n2cnnn2)c(C(=O)NC(C)C)c1C` it is -10.9%.
Under `CSc1sc2c(O)cc(=O)[nH]c2c1C(N)=O` stands 11.3%.
In the case of `Nc1nnc(SCC(=O)c2cc3c(cc2Cl)NC(=O)C3)s1`, the cytotoxicity at 70.5 h was -25.4%.
Under `CC(C)C[C@H](NC(=O)Cn1ccc2c(Cl)cccc21)C(=O)O` stands -15.2%.
Under `COc1cccc(N2CCN(C(=O)COc3c(C)occc3=O)CC2)c1` stands 10%; under `COc1ccc(N2CCN(C(=O)COc3c(C)occc3=O)CC2)cc1`, 2.1%.
Under `CC(=O)N1CCN(C(=O)c2ccc3ccn(C)c3c2)CC1` stands -15.9%; under `O=C(c1cc(=O)c(OCc2ccccc2F)co1)N1CCSCC1`, -3.38%.
`CCc1c(C)sc2c1c(N)nc(=O)n2CCCN(C)C`: the cytotoxicity at 70.5 h is 5.31%.
Take `COc1coc(C(=O)Nc2nc(C)cs2)cc1=O`: the cytotoxicity at 70.5 h was -15.8%.
The figure for `COc1ccc2c(ccn2CCC(=O)NCc2ccc(C(=O)O)cc2)c1` is -13.5%.
The figure for `COc1ccc2cnn(CC(=O)NC3CCCC3)c(=O)c2c1OC` is 2.71%; for `O=C(c1cc(=O)c(OCc2ccccc2)co1)N1CCSCC1` it is -18.7%.
The figure for `CCc1c(C)sc2nc3n(CCN4CCCCC4)nc(SC)n3c(=O)c12` is 13.4%.
Regarding `CC(C)(CO)Nc1c(NCc2ccccc2)c(=O)c1=O`, the cytotoxicity at 70.5 h came out at 0.361%.
On to `O=C(COc1coc(CN2CCOCC2)cc1=O)Nc1ccccc1F`, for which the cytotoxicity at 70.5 h was -12%.
The figure for `CC(C)(C)n1ncc2c1NC(=O)CSC2c1ccc2c(c1)OCO2` (centres undefined) is 2.42%; for `CC(C)CCNc1nc(C(=O)NC2CC2)cs1` it is 6.98%.
The figure for `O=C(COc1coc(CN2CCCCC2)cc1=O)Nc1cccc(Cl)c1` is -7.03%.
Under `NC(=O)c1c(SCCN2CCOCC2)sc2c(O)cc(=O)[nH]c12` stands 10.5%; under `Cc1nc(NC(=O)c2c(-n3cnnn3)sc(C)c2C)sc1C`, -8.41%; under `O=C(NCC(=O)N1CCCC1)c1nc(Cc2c(Cl)cccc2Cl)no1`, -16.3%.
Take `CS(=O)(=O)N1CCC2(CC1)CN(CCn1cccn1)C(=O)CO2`: the cytotoxicity at 70.5 h was determined as 8.7%.
With `O=C(c1ccc[nH]1)N1CC2(CCN(c3nccs3)C2)C1`, the cytotoxicity at 70.5 h was -3.73%.
As for `O=C1[C@@H]2CCN(CC3CC3)C[C@@H]2OCCN1c1cccnc1`, the cytotoxicity at 70.5 h worked out at 6.28%.
Consider `Cc1cccc(NC(=O)N2Cc3c(CN(C)C)nn(C)c3C2)c1`, for which the cytotoxicity at 70.5 h was -3.74%.
With `O=C(c1ccnnc1)N1CCCn2nnc(COCC3CC3)c2C1`, the cytotoxicity at 70.5 h was 6.34%.
The figure for `COCc1nnn2c1CN(C(=O)c1c[nH]cn1)CCC2` is 0.823%; for `O=S(=O)(C1CC1)N1CCc2ncc(Cn3cccn3)n2CC1` it is -1.43%; for `O=C(c1ccsc1)N1CCc2nnc(COc3cncnc3)n2CC1` it is 26.7%.
As to `Cc1ccc(-c2nc(CNC3CCc4ncnn4C3)no2)cc1` (centres undefined), the cytotoxicity at 70.5 h was -1.3%.
The figure for `CCc1nc2n(n1)CC(NCc1noc(-c3ccc(C)cc3)n1)CC2` (centres undefined) is 0.731%; for `Cc1nccn1C1CCCN(C(=O)c2ccc3c(c2)CCC3)C1` (centres undefined) it is 0.881%.
The figure for `Cc1nnc(NC(=O)CN(C)C2CCCN(c3cccnn3)C2)s1` (centres undefined) is 1.26%; for `COc1ccc(-c2nc(CNC3CCc4nc(C)nn4C3)no2)cc1` (centres undefined) it is -3.37%.
Under `COCCCNC(=O)CN(C)C1CCCN(c2cccnn2)C1` (centres undefined) stands -6.82%; under `O=C(CCOc1ccccc1F)N1CCCC1Cn1cccn1` (centres undefined), 0.51%; under `O=C(CCNc1ncccn1)N1CCC(Nc2cccnn2)CC1`, -2.9%.
For `CCCc1n[nH]c(C2CN(C(=O)c3ccc[nH]3)CCO2)n1` (centres undefined), the cytotoxicity at 70.5 h is -3.89%.
For the compound `CCCc1n[nH]c(C2CN(C(=O)c3cccc4cn[nH]c34)CCO2)n1` (centres undefined), the cytotoxicity at 70.5 h is -5.95%.
As to `Cc1cnn(-c2ccc(C(=O)N3CCCC(n4ccnc4C)C3)cc2)c1` (centres undefined), the cytotoxicity at 70.5 h is -4.35%.
The figure for `CCCc1nc(CN2CCOC(Cn3cncn3)C2)cs1` (centres undefined) is 22.5%; for `CCCN1CCC(CNC(=O)C2(c3ccccc3)CCC2)C1` (centres undefined) it is 18.5%.
Under `CCc1nnc2n1CCN(C(=O)CN(CC)CC)C2` stands 44.6%; under `Cc1cnn(CC2CN(Cc3csc(C4CCCC4)n3)CCO2)c1` (centres undefined), -0.185%.
Under `CC(C)c1nnc2n1CCN(C(=O)CN(C)Cc1ccccc1)C2` stands -1.56%.
For `COc1cc(C(=O)N(Cc2cnn(C)c2)C(C)C)ccc1C`, the cytotoxicity at 70.5 h is -1.26%.
With `CCOc1cc(C(=O)N2CCCC(n3nc(C)nc3C)C2)ccn1` (centres undefined), the cytotoxicity at 70.5 h was -3.74%.
Under `CN(C)S(=O)(=O)c1ccc(CN2CCCC2c2ccsc2)o1` (centres undefined) stands -7.08%; under `CN(C)C(=O)CS(=O)(=O)Cc1cc(Cl)c2c(c1)OCCO2`, 3.21%.
The figure for `CC(NC(=O)NCC1(c2ccc(F)cc2)CC1)c1nncn1C` (centres undefined) is -1.68%; for `COc1cc(C(=O)N(Cc2cnn(C)c2)C(C)C)ccc1OC(C)C` it is 3.17%; for `Cc1cc(C)cc(C2(C(=O)NCC3CCN(CC(F)(F)F)C3)CC2)c1` (centres undefined) it is -2.93%.
Under `COc1cc(N2CCC3(CCCN3Cc3ccn(C)n3)CC2)ncn1` stands -3.28%; under `Cn1cc(C(=O)NC[C@H]2OC[C@@H]3CCN(C4CCOCC4)C[C@@H]32)cn1`, -3.43%; under `Cc1ccc(N2CCC3(CC2)CCN(C2CCOC2)CC3)nn1` (centres undefined), -6.73%.
Consider `Cn1nc(CN2CCCC2)c2c1CN(C(=O)Nc1cccc(F)c1)CC2`, for which the cytotoxicity at 70.5 h is -7.05%.
The figure for `O=C(c1ccncc1)N1CCCn2nnc(COCCO)c2C1` is -5%.
The figure for `O=C1COC2(CCN(Cc3ccco3)CC2)CN1CCn1cccn1` is -6.38%.
Under `COc1cc(N2CCC3(CCCN3Cc3cnn(C)c3)CC2)ncn1` stands -3.32%; under `O=C(NC[C@H]1OC[C@@H]2CCN(C3CCOCC3)C[C@@H]21)c1ccncc1`, -3%; under `Cc1noc(C)c1CN1CCc2cnn(C)c2C1COCC1CC1` (centres undefined), -3.84%.
For the compound `CN1CCn2c(-c3cnn(C)c3)cnc2C12CCN(CC1CC1)CC2`, the cytotoxicity at 70.5 h was -4.02%.
Under `CN1CCn2c(-c3ccccc3)cnc2C12CCN(CC1CC1)CC2` stands -3.45%; under `O=C(NCCc1c[nH]c2ccccc12)C1CCC(Cn2cnnn2)CC1` (centres undefined), 19.8%.

The values are drawn from ChEMBL document CHEMBL3507680, “University of Dundee, Gates Library screen for HepG2 cell viability”.
